Measured values reported in patent US9701680B2, “Pyrimidine and pyridine compounds and their usage” (HUTCHISON MEDIPHARMA LIMITED, priority 2013, dated 2017).
Read-outs that look alike come from different tables or passages of the source.

Columns and labels:
Recombinant human FGFR1 = Recombinant human FGFR1 (Homo sapiens, UniProt P11362); assay: Transcreener Kinase Assay of FGFR1; format: biochemical
Method in brief: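 Recombinant human FGFR1 was reacted with Poly E4Y substrate and ATP for 45 min at 28 °C, with compounds at 1 to 0.0005 µM in 1% DMSO final. Inhibition is relative to the DMSO control, with IC50 from a curve fit.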

Recombinant human FGFR2 = Recombinant human FGFR2 (Homo sapiens, UniProt P21802); assay: Transcreener Kinase Assay of FGFR2; format: biochemical
FGFR3 kinase = FGFR3 kinase (Homo sapiens, UniProt P22607); assay: Z-Lyte Kinase Assay of FGFR3; format: biochemical
Method in brief: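 Z-LYTE FRET assay, kinase 0.7 μg/ml with Tyr 4 peptide 4 μM (P/K solution), ATP diluted to 300 uM in 1.33× buffer; compound final 1 to 0.00046 μM, 2% DMSO.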

KG-1 = assay: Cellular Proliferation Assay (Cell Counting Kit-8), KG-1; format: cell-based; conditions: Homo sapiens; KG-1 cells, 72 hours; read-out: KG1 IC50
Method in brief: (§1)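 Seeding per well: KG-1 30000, SNU-16 5000, RT-112 1000 cells. After 24 h an 8-point series (working dilutions 10 to 0.004 μM in 5% DMSO) was added for 72 h at 37 °C, 5% CO2. CCK-8 OD450 after 1 h, corrected for media background and normalised to untreated cells, gave IC50.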

SNU-16 = assay: Cellular Proliferation Assay (Cell Counting Kit-8), SNU-16; format: cell-based; conditions: Homo sapiens; SNU-16 cells, 72 hours
Method in brief: as §1

RT-112 = assay: Cellular Proliferation Assay (Cell Counting Kit-8), RT-112; format: cell-based; conditions: Homo sapiens; RT-112 cells, 72 hours
Method in brief: as §1

Recombinant human FGFR1, sequence (P11362 22-822): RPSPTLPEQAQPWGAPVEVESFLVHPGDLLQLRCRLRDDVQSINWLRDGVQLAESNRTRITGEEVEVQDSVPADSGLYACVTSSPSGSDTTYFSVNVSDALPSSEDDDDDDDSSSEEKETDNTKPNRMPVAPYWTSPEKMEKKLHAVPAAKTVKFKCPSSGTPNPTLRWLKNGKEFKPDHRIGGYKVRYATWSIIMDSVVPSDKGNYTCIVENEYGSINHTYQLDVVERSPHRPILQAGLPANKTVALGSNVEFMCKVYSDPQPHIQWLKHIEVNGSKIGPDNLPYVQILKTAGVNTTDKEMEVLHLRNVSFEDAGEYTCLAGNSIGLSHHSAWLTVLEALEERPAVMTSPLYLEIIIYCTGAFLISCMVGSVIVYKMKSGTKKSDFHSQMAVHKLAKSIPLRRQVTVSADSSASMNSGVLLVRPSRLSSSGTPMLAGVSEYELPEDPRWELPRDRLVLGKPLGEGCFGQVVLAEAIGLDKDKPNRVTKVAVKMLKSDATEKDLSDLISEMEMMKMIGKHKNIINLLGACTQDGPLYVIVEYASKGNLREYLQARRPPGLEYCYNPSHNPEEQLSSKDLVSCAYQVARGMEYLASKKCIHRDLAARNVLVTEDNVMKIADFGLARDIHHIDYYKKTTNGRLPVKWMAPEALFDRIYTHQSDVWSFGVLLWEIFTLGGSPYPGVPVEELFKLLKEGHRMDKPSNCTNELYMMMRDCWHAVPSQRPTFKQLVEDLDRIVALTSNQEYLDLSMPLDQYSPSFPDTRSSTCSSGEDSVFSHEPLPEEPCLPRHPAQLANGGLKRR
FGFR3 kinase, sequence (P22607 23-806): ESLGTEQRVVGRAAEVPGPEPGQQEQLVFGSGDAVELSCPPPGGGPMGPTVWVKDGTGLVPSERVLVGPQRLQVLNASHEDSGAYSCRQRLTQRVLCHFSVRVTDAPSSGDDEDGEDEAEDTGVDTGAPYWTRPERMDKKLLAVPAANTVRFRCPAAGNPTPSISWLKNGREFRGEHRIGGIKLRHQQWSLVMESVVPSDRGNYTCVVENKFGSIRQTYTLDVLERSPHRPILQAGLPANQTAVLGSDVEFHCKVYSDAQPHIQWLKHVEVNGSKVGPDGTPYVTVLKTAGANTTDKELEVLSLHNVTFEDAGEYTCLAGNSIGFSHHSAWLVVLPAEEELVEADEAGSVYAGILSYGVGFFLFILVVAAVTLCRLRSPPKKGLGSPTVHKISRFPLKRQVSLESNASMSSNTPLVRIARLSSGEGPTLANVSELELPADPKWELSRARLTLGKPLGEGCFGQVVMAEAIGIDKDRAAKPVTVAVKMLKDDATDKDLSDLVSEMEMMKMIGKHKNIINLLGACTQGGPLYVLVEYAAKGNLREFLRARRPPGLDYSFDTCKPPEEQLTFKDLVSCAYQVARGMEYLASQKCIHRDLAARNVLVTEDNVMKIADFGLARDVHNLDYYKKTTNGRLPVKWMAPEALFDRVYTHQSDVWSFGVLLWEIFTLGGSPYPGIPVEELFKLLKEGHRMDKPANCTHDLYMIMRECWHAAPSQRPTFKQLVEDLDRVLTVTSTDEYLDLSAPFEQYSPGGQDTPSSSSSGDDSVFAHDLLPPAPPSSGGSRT
Recombinant human FGFR2, sequence (P21802 22-821): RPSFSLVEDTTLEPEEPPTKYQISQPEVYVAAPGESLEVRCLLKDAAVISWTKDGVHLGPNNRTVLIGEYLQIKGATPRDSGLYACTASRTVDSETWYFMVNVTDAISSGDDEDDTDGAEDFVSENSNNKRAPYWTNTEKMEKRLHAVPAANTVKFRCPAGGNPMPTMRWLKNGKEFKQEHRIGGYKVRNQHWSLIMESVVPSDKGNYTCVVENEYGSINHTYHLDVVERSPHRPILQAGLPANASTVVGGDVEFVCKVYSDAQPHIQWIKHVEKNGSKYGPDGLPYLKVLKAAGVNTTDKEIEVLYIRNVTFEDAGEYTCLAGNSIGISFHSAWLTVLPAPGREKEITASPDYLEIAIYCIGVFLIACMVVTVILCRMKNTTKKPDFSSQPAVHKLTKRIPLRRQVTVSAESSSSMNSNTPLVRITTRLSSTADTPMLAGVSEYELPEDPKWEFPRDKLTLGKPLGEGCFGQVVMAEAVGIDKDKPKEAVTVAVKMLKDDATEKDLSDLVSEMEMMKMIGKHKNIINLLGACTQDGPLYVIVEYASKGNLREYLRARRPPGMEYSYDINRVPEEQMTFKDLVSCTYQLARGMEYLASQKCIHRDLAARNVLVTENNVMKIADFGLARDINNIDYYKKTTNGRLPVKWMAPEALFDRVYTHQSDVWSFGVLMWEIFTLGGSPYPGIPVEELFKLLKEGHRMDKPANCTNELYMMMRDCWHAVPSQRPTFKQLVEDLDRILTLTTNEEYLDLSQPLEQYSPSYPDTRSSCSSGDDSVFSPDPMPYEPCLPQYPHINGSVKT

| Compound | IC50 (Recombinant human FGFR1; FP) [µM] | IC50 (Recombinant human FGFR2; FP) [µM] | IC50 (FGFR3 kinase; Z-lyte) [µM] | IC50 (SNU-16) [µM] | IC50 (Recombinant human FGFR1; read-out: FGFR1 (FP) IC50) [µM] | IC50 (Recombinant human FGFR2; read-out: FGFR2 (FP) IC50) [µM] | IC50 (FGFR3 kinase) [µM] | IC50 (KG-1) [µM] | IC50 (RT-112) [µM] |
| --- | --- | --- | --- | --- | --- | --- | --- | --- | --- |
| CNC(=O)c1cc(OC)c(F)c(COc2cnc(Nc3ccc(N4C[C@@H](C)N[C@@H](C)C4)nc3)nc2)c1F [Compound 278] | 0.023 | 0.014 | 0.02 | 0.027 |  |  |  | 0.034 | 0.065 |
| CNC(=O)c1cc(CCc2cnc(Nc3ccc(N4C[C@@H](C)N(C)[C@@H](C)C4)nc3)nc2)c(Cl)c(OC)c1 [Compound 158] |  |  |  | 0.007 | 0.014 | 0.007 | 0.006 | 0.016 | 0.029 |
| CNC(=O)c1cc(OC)c(F)c(COc2cnc(Nc3cccc(N4C[C@@H](C)N[C@@H](C)C4)c3)nc2)c1F [Compound 275] |  |  |  | 0.018 | 0.014 | 0.009 | 0.014 | 0.046 | 0.062 |
| CNC(=O)c1cc(COc2cnc(Nc3cnc(N4C[C@@H](C)N[C@@H](C)C4)c(C)c3)nc2)c(Cl)c(OC)c1 [Compound 287] | 0.011 | 0.008 | 0.008 | 0.014 |  |  |  | 0.054 | 0.035 |
| CCN1CCN(c2ccc(Nc3ncc(OCc4cc(C(=O)NC)cc(OC)c4F)cn3)cc2OC)CC1 [Compound 283] | 0.012 | 0.005 | 0.004 | 0.003 |  |  |  | 0.008 | 0.008 |
| CNC(=O)c1cc(COc2cnc(Nc3ccc(N4CCN(C)CC4)c(OC)c3)nc2)c(Cl)c(OC)c1 [Compound 288] | 0.006 | 0.004 | 0.004 | 0.002 |  |  |  | 0.002 | 0.003 |
| CNC(=O)c1cc(CCc2cnc(Nc3ccc(C(C)(C)C#N)nc3)nc2)c(F)c(OC)c1 [Compound 142] |  |  |  | 0.043 | 0.031 | 0.012 | 0.049 | 0.064 | 0.127 |
| CNC(=O)c1cc(COc2cnc(Nc3ccc(N4C[C@@H](C)N(C)[C@@H](C)C4)cc3)nc2)c(Cl)c(OC)c1 [Compound 286] | 0.007 | 0.006 | 0.009 | 0.016 |  |  |  | 0.008 | 0.043 |
| CNC(=O)c1cc(COc2cnc(Nc3ccc(=O)n(C4CCCC4)c3)nc2)c(F)c(OC)c1 [Compound 237] |  |  |  | 0.042 | 0.066 | 0.027 | 0.029 | 0.079 | 0.134 |
| CCN1[C@H](C)CN(c2ccc(Nc3ncc(OCc4cc(C(=O)NC)cc(OC)c4F)cn3)cn2)C[C@@H]1C [Compound 281] | 0.019 | 0.014 | 0.019 | 0.014 |  |  |  | 0.009 | 0.037 |
| CNC(=O)c1cc(COc2cnc(Nc3ccc(N4CCOCC4)nc3)nc2)c(Cl)c(OC)c1 [Compound 247] |  |  |  | 0.028 | 0.034 | 0.016 | 0.023 | 0.042 | 0.057 |
| CNC(=O)c1cc(CCc2cnc(Nc3ccc(N4CCN(C)CC4)c(OC)c3)nc2)c(Cl)c(OC)c1 [Compound 177] |  |  |  | 0.002 | 0.006 | 0.005 | 0.006 | 0.011 | 0.011 |
| CCN1CCC(c2ccc(Nc3ncc(OCc4cc(C(=O)NC)cc(OC)c4F)cn3)cc2OC)CC1 [Compound 280] | 0.027 | 0.018 | 0.016 | 0.007 |  |  |  | 0.191 | 0.029 |
| CNC(=O)c1cc(COc2cnc(Nc3ccc([C@H]4CCCNC4)nc3)nc2)c(Cl)c(OC)c1 [Compound 245] |  |  |  | 0.136 | 0.016 | 0.017 | 0.018 | 0.533 | 0.581 |
| CNC(=O)c1cc(COc2cnc(Nc3ccc(OC)c(N4CCN(C)CC4)c3)nc2)c(F)c(OC)c1 [Compound 270] |  |  |  | 0.01 | 0.018 | 0.009 | 0.008 | 0.052 | 0.023 |
| CNC(=O)c1cc(CCc2cnc(Nc3ccc(O)cc3)nc2)c(Cl)c(OC)c1 [Compound 81] |  |  |  | 0.059 | 0.017 | 0.013 | 0.026 | 0.026 | 0.133 |

Continued by falling IC50 (SNU-16), values first:

| IC50 (Recombinant human FGFR1; FP) [µM] | IC50 (Recombinant human FGFR2; FP) [µM] | IC50 (FGFR3 kinase; Z-lyte) [µM] | IC50 (SNU-16) [µM] | IC50 (Recombinant human FGFR1; read-out: FGFR1 (FP) IC50) [µM] | IC50 (Recombinant human FGFR2; read-out: FGFR2 (FP) IC50) [µM] | IC50 (FGFR3 kinase) [µM] | Compound | IC50 (KG-1) [µM] | IC50 (RT-112) [µM] |
| --- | --- | --- | --- | --- | --- | --- | --- | --- | --- |
|  |  |  | 0.155 | 0.04 | 0.016 | 0.042 | C#Cc1ccc(Nc2ncc(OCc3cc(C(=O)NC)cc(OC)c3F)cn2)cn1 [Compound 211] | 0.103 | 0.078 |
|  |  |  | 0.072 | 0.044 | 0.02 | 0.065 | CNC(=O)c1cc(COc2cnc(Nc3ccc(C(C)=O)cc3)nc2)c(F)c(OC)c1 [Compound 215] | 0.026 | 0.127 |
|  |  |  | 0.065 | 0.009 | 0.008 | 0.025 | CCN1CCN(c2ccc(Nc3ccc(CCc4cc(OC)cc(C(=O)NOC)c4)cn3)cc2)CC1 [Compound 73] | 0.07 | 0.493 |
|  |  |  | 0.051 | 0.029 | 0.018 | 0.02 | CNC(=O)c1cc(COc2cnc(Nc3ccc(-n4cnnc4)cc3)nc2)c(F)c(OC)c1 [Compound 223] | 0.102 | 0.729 |
|  |  |  | 0.041 | 0.025 | 0.023 | 0.024 | CCN(CC)CCn1cc(Nc2ncc(OCc3c(F)c(OC)cc(C(=O)NC)c3F)cn2)cn1 [Compound 251] | 0.031 | 0.087 |
|  |  |  | 0.027 | 0.034 | 0.011 | 0.037 | CNC(=O)c1cc(COc2cnc(Nc3ccc(-n4cncn4)cc3)nc2)c(F)c(OC)c1 [Compound 221] | 0.035 | 0.072 |
|  |  |  | 0.024 | 0.012 | 0.005 | 0.003 | CNC(=O)c1cc(CCc2cnc(Nc3cnn(C[C@H](C)O)c3)nc2)c(Cl)c(OC)c1 [Compound 88] | 0.03 | 0.05 |
| 0.011 | 0.007 | 0.007 | 0.023 |  |  |  | CNC(=O)c1cc(COc2cnc(Nc3ccc(O[C@@H]4O[C@H](CO)[C@@H](O)[C@H](O)[C@H]4O)cc3)nc2)c(Cl)c(OC)c1 [Compound 303] | 0.04 | 0.064 |
|  |  |  | 0.018 | 0.01 | 0.011 | 0.013 | CNC(=O)c1cc(CCc2cnc(Nc3ccc(N)cc3)nc2)c(Cl)c(OC)c1 [Compound 80] | 0.013 | 0.044 |
| 0.017 | 0.018 | 0.017 | 0.017 |  |  |  | CNC(=O)c1cc(OC)c(Cl)c(COc2cnc(Nc3ccc(N4C[C@@H](C)N[C@@H](C)C4)nc3)nc2)c1F [Compound 291] | 0.015 | 0.027 |
|  |  |  | 0.015 | 0.006 | 0.004 | 0.03 | CNC(=O)c1cc(COc2cnc(Nc3cccc(-n4ccnn4)c3)nc2)c(Cl)c(OC)c1 [Compound 234] | 0.014 | 0.035 |
|  |  |  | 0.014 | 0.018 | 0.01 | 0.013 | CNC(=O)c1cc(COc2cnc(Nc3ccc(CN4CCOCC4)cc3)nc2)c(F)c(OC)c1 [Compound 242] | 0.01 | 0.032 |
| 0.009 | 0.008 | 0.013 | 0.014 |  |  |  | CNC(=O)c1cc(OC)c(Cl)c(COc2cnc(Nc3ccc(N4C[C@@H](C)N[C@@H](C)C4)c(C)c3)nc2)c1F [Compound 298] | 0.008 | 0.015 |
|  |  |  | 0.012 | 0.012 | 0.008 | 0.006 | CNC(=O)c1cc(CCc2cnc(Nc3ccc(N4C[C@@H](C)N(C)[C@@H](C)C4)cc3)nc2)c(Cl)c(OC)c1 [Compound 175] | 0.011 | 0.03 |
| 0.009 | 0.006 | 0.01 | 0.011 |  |  |  | CNC(=O)c1cc(COc2cnc(Nc3cccc(CCN4CCN(CCOC)CC4)c3)nc2)c(F)c(OC)c1 [Compound 301] | 0.024 | 0.037 |
|  |  |  | 0.01 | 0.038 | 0.014 | 0.015 | CNC(=O)c1cc(COc2cnc(Nc3cnn(C[C@H]4COC(C)(C)O4)c3)nc2)c(F)c(OC)c1 [Compound 249] | 0.027 | 0.03 |
|  |  |  | 0.007 | 0.025 | 0.012 | 0.021 | CNC(=O)c1cc(COc2cnc(Nc3ccc(OC)c(OC)c3)nc2)c(F)c(OC)c1 [Compound 218] | 0.027 | 0.044 |
|  |  |  | 0.006 | 0.01 | 0.007 | 0.005 | CNC(=O)c1cc(COc2cnc(Nc3ccc(N4CCN(C)CC4)c(OC)c3)nc2)c(F)c(OC)c1 [Compound 269] | 0.006 | 0.005 |
